Assay results published in ChEMBL document CHEMBL3046747, “Assessment of species specificity of moulting accelerating compounds in Lepidoptera: comparison of activity between Bombyx mori and Spodoptera littoralis by in vitro reporter and in vivo toxicity assays” (Pest Manag Sci, 2010).
Calls of active or inactive are those of the source. No cut-off for these calls is given here.

Legend:
Ecdysone receptor [1] = biological target: T1, Ecdysone receptor (Spodoptera littoralis, UniProt E3UJZ5); experiment: Antagonist activity at ecdysone receptor in Spodoptera littoralis Sl2 cells assessed as tebufenozide-induced effect treated 24 hr before tebufenozide challenge measured after 24 hr by luciferase reporter gene assay; type: cell-based
T1 sequence (E3UJZ5 whole entry): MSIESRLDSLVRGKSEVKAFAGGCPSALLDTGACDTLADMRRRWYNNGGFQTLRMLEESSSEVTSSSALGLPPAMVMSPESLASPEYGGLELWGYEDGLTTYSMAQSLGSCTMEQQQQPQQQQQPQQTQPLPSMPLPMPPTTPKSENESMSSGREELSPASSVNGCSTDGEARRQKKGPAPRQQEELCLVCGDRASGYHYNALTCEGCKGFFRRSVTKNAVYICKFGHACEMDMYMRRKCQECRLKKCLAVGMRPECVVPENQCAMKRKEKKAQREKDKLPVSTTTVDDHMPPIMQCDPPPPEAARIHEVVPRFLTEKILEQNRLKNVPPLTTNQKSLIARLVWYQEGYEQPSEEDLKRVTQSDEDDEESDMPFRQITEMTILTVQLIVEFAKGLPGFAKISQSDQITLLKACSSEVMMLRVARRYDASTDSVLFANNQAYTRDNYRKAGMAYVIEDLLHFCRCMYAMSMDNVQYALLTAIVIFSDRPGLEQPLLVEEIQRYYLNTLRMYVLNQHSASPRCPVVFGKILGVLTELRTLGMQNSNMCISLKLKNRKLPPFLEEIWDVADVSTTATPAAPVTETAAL

[2] = Ratio of IC50 for ecdysone receptor in Spodoptera littoralis Sl2 cells to LC50 for Spodoptera littoralis Sl2 cells
[3] = Cytotoxicity against Bombyx mori Bm5 cells assessed as cell viability after 24 hr by MTT assay; type: cell-based; conditions: read-out: pLC50 (converted)
Ecdysone receptor [4] = biological target: T2, Ecdysone receptor (Bombyx mori, UniProt P49881); experiment: Antagonist activity at ecdysone receptor in Bombyx mori Bm5 cells assessed as tebufenozide-induced effect treated 24 hr before tebufenozide challenge measured after 24 hr by luciferase reporter gene assay; type: cell-based
T2 sequence (P49881 whole entry): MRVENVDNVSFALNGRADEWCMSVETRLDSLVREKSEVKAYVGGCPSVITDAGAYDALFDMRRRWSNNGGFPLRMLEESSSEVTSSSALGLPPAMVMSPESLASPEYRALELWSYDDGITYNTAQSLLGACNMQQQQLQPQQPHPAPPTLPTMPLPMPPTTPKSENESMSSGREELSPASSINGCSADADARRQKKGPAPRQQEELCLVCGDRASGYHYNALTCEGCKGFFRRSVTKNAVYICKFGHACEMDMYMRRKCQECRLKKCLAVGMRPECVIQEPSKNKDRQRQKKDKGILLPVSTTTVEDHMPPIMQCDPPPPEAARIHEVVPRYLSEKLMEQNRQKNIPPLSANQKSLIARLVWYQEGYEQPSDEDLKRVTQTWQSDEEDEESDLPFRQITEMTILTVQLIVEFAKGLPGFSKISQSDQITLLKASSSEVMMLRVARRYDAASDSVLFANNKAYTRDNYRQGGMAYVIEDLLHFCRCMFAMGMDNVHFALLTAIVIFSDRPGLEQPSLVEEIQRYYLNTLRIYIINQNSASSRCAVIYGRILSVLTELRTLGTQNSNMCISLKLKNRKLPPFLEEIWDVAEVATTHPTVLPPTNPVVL

Spodoptera littoralis [5] = experiment: Cytotoxicity against Spodoptera littoralis Sl2 cells assessed as cell viability after 24 hr by MTT assay; conditions: read-out: pLC50 (converted)
[6] = Ratio of IC50 for ecdysone receptor in Bombyx mori Bm5 cells to LC50 for Bombyx mori Bm5 cells
[7] = biological target: T3, Ecdysone receptor (Spodoptera littoralis) (UniProt E3UJZ5); experiment: Agonist activity at ecdysone receptor in Spodoptera littoralis Sl2 cells after 24 hr by luciferase reporter gene assay relative to tebufenozide; type: cell-based
T3 sequence (whole entry): T1 sequence (E3UJZ5 whole entry)

[8] = biological target: T4, Ecdysone receptor (Bombyx mori) (UniProt P49881); experiment: Agonist activity at ecdysone receptor in Bombyx mori Bm5 cells after 24 hr by luciferase reporter gene assay relative to tebufenozide; type: cell-based
T4 sequence (whole entry): T2 sequence (P49881 whole entry)

[9] = Selectivity ratio of EC50 for ecdysone receptor in Bombyx mori Bm5 cells to EC50 for ecdysone receptor in Spodoptera littoralis Sl2 cells; type: cell-based
Ecdysone receptor [10] = biological target: T1, Ecdysone receptor; experiment: Agonist activity at ecdysone receptor in Spodoptera littoralis Sl2 cells after 24 hr by luciferase reporter gene assay; type: cell-based
Ecdysone receptor [11] = biological target: T2, Ecdysone receptor; experiment: Agonist activity at ecdysone receptor in Bombyx mori Bm5 cells after 24 hr by luciferase reporter gene assay; type: cell-based
[12] = biological target: T4, Ecdysone receptor (Bombyx mori); experiment: Agonist activity at ecdysone receptor in Bombyx mori Bm5 cells at 200 uM after 24 hr by luciferase reporter gene assay; type: cell-based
[13] = biological target: T3, Ecdysone receptor (Spodoptera littoralis); experiment: Agonist activity at ecdysone receptor in Spodoptera littoralis Sl2 cells at 200 uM after 24 hr by luciferase reporter gene assay; type: cell-based
Bombyx mori = experiment: Larvicidal activity against Bombyx mori assessed as mortality applied topically after 1 week; type: functional
[14] = Ratio of LD50 for Spodoptera littoralis to LD50 for Bombyx mori; type: functional
Spodoptera littoralis [15] = experiment: Larvicidal activity against Spodoptera littoralis assessed as mortality applied topically after 1 week; type: functional

SMILES | IC50 (Ecdysone receptor [1]) [µM] | Ratio [2] | CC50 at 24 h [3] [µM] | IC50 (Ecdysone receptor [4]) [µM] | CC50 at 24 h (Spodoptera littoralis [5]) [µM] | Ratio [6] | Efficacy [7] [%] | Efficacy [8] [%] | Ratio EC50 [9] | EC50 (Ecdysone receptor [10]; read-out: pEC50 (converted)) [µM] | EC50 (Ecdysone receptor [11]; read-out: pEC50 (converted)) [µM] | also measured
Cc1ccc(NC2CCN(C(=O)c3ccc(Cl)cc3)CC2)cc1 | 15.1 | 0.55 | < 5.01 | 2.24 | 27.5 | – | – | – | – | – | – | –
CC1CCc2ccccc2N1C(=O)c1ccc(Cl)cc1 (stereo not given) | 55 | 0.53 | 69.2 | 47.9 | 102 | 0.69 | – | – | – | – | – | –
CCc1ccc(C(=O)NC(C(=O)c2cc(C)cc(C)c2)C(C)(C)C)cc1 (stereo not given) | 24 | <0.05 | 38.9 | 28.2 | > 501 | 0.72 | 17 | 11 | 0.76 | 46.8 | 35.5 | –
Cc1cc(C)cc(C(=O)C2(NC(=O)C(F)(F)F)CCCCC2)c1 | 16.2 | <0.04 | 234 | 67.6 | > 501 | 0.29 | 17 | 6 | – | – | – | pEC50 (Ecdysone receptor [10]; sl2): > 4; pEC50 (Ecdysone receptor [11]): > 4
Cc1ccc(NC2CCN(C(=O)c3ccc(Cl)cc3)c3ccccc32)cc1 (stereo not given) | – | 0.12 | 21.4 | 8.91 | 427 | 0.42 | – | – | – | – | – | –
CCOc1ccccc1C(=O)N(NC(=O)c1ccc([N+](=O)[O-])cc1)C(C)(C)C | – | – | – | – | – | – | – | – | – | – | – | Activity [12]: inactive; Activity [13]: inactive
CCOc1ccccc1C(=O)N(NC(=O)c1ccccc1)C(C)(C)C | – | – | – | – | – | – | – | – | – | – | – | Activity [12]: inactive; Activity [13]: inactive
Cc1ccc(N(C(=O)c2ccc(Cl)cc2)C2CC(C)N(C(=O)c3ccc(Cl)cc3)c3ccc(C)cc32)cc1 (stereo not given) | 12.9 | <0.85 | 7.08 | 13.5 | > 15.1 | 1.91 | – | – | – | – | – | –
Cc1ccc(NC2CC(C)N(C(=O)c3ccc(Cl)cc3)c3ccc(C)cc32)cc1 (stereo not given) | 79.4 | <0.16 | 34.7 | 14.8 | > 501 | 0.43 | – | – | – | – | – | –
CC(C)(C)N(NC(=O)c1ccc(Br)cc1)C(=O)c1ccccc1Cl | – | – | – | – | – | – | 77 | 106 | 0.34 | 0.437 | 0.151 | pLD50 (Bombyx mori): 6.27; Ratio [14]: > 7.59; pLD50 (Spodoptera littoralis [15]): <5.39
Cc1ccc(NC2CC(C)N(C(=O)c3ccc(C)cc3)c3ccc(C)cc32)cc1 (stereo not given) | 74.1 | <0.15 | 30.2 | 26.9 | > 501 | 0.89 | – | – | – | – | – | –
CC1CC(Nc2ccc(F)cc2)c2cc(F)ccc2N1C(=O)c1ccc(Cl)cc1 (stereo not given) | – | – | 162 | – | > 501 | – | 64 | 59 | – | – | – | EC50 (Ecdysone receptor [10]; read-out: EC50): 60 µM; EC50 (Ecdysone receptor [11]; read-out: EC50): 55 µM
COc1ccc(C(=O)NN(C(=O)c2ccccc2Cl)C(C)(C)C)cc1 | – | – | – | – | – | – | 85 | 126 | 0.4 | 0.339 | 0.135 | pLD50 (Bombyx mori): 6.53; Ratio [14]: > 12.3; pLD50 (Spodoptera littoralis [15]): <5.44
Cc1ccccc1C(=O)NN(C(=O)c1ccccc1Cl)C(C)(C)C | – | – | – | – | – | – | 124 | 98 | 0.3 | 0.437 | 0.129 | pLD50 (Bombyx mori): 6.69; Ratio [14]: > 17; pLD50 (Spodoptera littoralis [15]): <5.46
CCc1ccc(C(=O)NN(C(=O)c2ccccc2)C(C)(C)C)cc1 | – | – | – | – | – | – | 110 | 84 | 0.16 | 0.11 | 0.0174 | pLD50 (Bombyx mori): 7.09; Ratio [14]: > 39.8; pLD50 (Spodoptera littoralis [15]): <5.49
Cc1cc(C)cc(C(=O)N(NC(=O)c2cccc(C)c2C)C(C)(C)C)c1 | – | – | – | – | – | – | 63 | 82 | 0.68 | 0.0162 | 0.011 | pLD50 (Bombyx mori): 7.29; Ratio [14]: 7.08; pLD50 (Spodoptera littoralis [15]): 6.44
Cc1ccc(NC2CC(C)N(C(=O)c3ccc(C(C)(C)C)cc3)c3ccc(C)cc32)cc1 (stereo not given) | > 25.1 | – | 11.5 | 24 | > 25.1 | 2.09 | – | – | – | – | – | –
